Activity calls are given as the source filed them. The rule behind the calls is not given here.

This data set has as its system CCRIS mutagenicity, Ames/micronucleus/aberration tests. In words: CCRIS mutagenicity studies.
The mark [1] stands for this setting: Test System: AMES SALMONELLA TYPHIMURIUM, Strain/Indicator: TA97, Metabolic Activation: NONE, Method: PREINCUBATION
[2] abbreviates: Test System: AMES SALMONELLA TYPHIMURIUM, Strain/Indicator: TA98, Metabolic Activation: HAMSTER, LIVER, S-9, AROCLOR 1254 (10%), Method: PREINCUBATION
[3] abbreviates: Test System: AMES SALMONELLA TYPHIMURIUM, Strain/Indicator: TA98, Metabolic Activation: NONE, Method: PREINCUBATION
[4] abbreviates: Test System: AMES SALMONELLA TYPHIMURIUM, Strain/Indicator: TA98, Metabolic Activation: RAT, LIVER, S-9, AROCLOR 1254 (10%), Method: PREINCUBATION
Setting [5] is: Test System: AMES SALMONELLA TYPHIMURIUM, Strain/Indicator: TA100, Metabolic Activation: HAMSTER, LIVER, S-9, AROCLOR 1254 (10%), Method: PREINCUBATION
Setting [6] is: Test System: AMES SALMONELLA TYPHIMURIUM, Strain/Indicator: TA100, Metabolic Activation: NONE, Method: PREINCUBATION
Where [7] appears, read: Test System: AMES SALMONELLA TYPHIMURIUM, Strain/Indicator: TA100, Metabolic Activation: RAT, LIVER, S-9, AROCLOR 1254 (10%), Method: PREINCUBATION
Setting [8] is: Test System: AMES SALMONELLA TYPHIMURIUM, Strain/Indicator: TA1535, Metabolic Activation: HAMSTER, LIVER, S-9, AROCLOR 1254 (10%), Method: PREINCUBATION
The mark [9] stands for this setting: Test System: AMES SALMONELLA TYPHIMURIUM, Strain/Indicator: TA1535, Metabolic Activation: NONE, Method: PREINCUBATION
[10] abbreviates: Test System: AMES SALMONELLA TYPHIMURIUM, Strain/Indicator: TA1535, Metabolic Activation: RAT, LIVER, S-9, AROCLOR 1254 (10%), Method: PREINCUBATION
[11] abbreviates: Test System: AMES SALMONELLA TYPHIMURIUM, Strain/Indicator: TA98, Metabolic Activation: RAT, LIVER, S-9, AROCLOR 1254, Method: STANDARD PLATE.

As for `CCCCCC`, the mutagenic call was “inactive; negative” under setting [1]; “inactive; negative” (Test System: AMES SALMONELLA TYPHIMURIUM, Strain/Indicator: TA97, Metabolic Activation: RAT, LIVER, S-9, AROCLOR 1254, Method: PREINCUBATION); “inactive; negative” under setting [2]; “inactive; negative” under setting [3]; “inactive; negative” under setting [4]; “inactive; negative” under setting [5]. For the same compound, the mutagenic call under setting [6] is “inactive; negative”; the mutagenic call under setting [7] was “inactive; negative”; the mutagenic call (Test System: AMES SALMONELLA TYPHIMURIUM, Strain/Indicator: TA102, Metabolic Activation: NONE, Method: PREINCUBATION) was “inactive; negative”; the mutagenic call (Test System: AMES SALMONELLA TYPHIMURIUM, Strain/Indicator: TA102, Metabolic Activation: RAT, LIVER, S-9, AROCLOR 1254, Method: PREINCUBATION) is “inactive; negative”; the mutagenic call under setting [8] is “inactive; negative”; the mutagenic call under setting [9] is “inactive; negative”. Further, the mutagenic call is “inactive; negative” under setting [10]; “inactive; negative” (Test System: AMES SALMONELLA TYPHIMURIUM, Strain/Indicator: TA1537, Metabolic Activation: HAMSTER, LIVER, S-9, AROCLOR 1254 (10%), Method: PREINCUBATION); “inactive; negative” (Test System: AMES SALMONELLA TYPHIMURIUM, Strain/Indicator: TA1537, Metabolic Activation: NONE, Method: PREINCUBATION); “inactive; negative” (Test System: AMES SALMONELLA TYPHIMURIUM, Strain/Indicator: TA1537, Metabolic Activation: RAT, LIVER, S-9, AROCLOR 1254 (10%), Method: PREINCUBATION).
On to `Cc1cc2c(nc(N)n2C)c2ncc(-c3ccccc3)nc12`, for which, under setting [11], the mutagenic call is “active; positive”.
For `c1ccc2c(c1)ccc1ccccc12`, the mutagenic call (Test System: AMES SALMONELLA TYPHIMURIUM, Strain/Indicator: TA97, Metabolic Activation: HAMSTER, LIVER, S-9, AROCLOR 1254 (10%), Method: PREINCUBATION) is “inactive; negative”; the mutagenic call under setting [1] was “inactive; negative”; the mutagenic call (Test System: AMES SALMONELLA TYPHIMURIUM, Strain/Indicator: TA97, Metabolic Activation: NONE, Method: STANDARD PLATE) is “inactive; negative”; the mutagenic call (Test System: AMES SALMONELLA TYPHIMURIUM, Strain/Indicator: TA97, Metabolic Activation: RAT, LIVER, S-9, AROCLOR 1254 (10%), Method: PREINCUBATION) was “inactive; negative”; the mutagenic call (Test System: AMES SALMONELLA TYPHIMURIUM, Strain/Indicator: TA97, Metabolic Activation: RAT, LIVER, S-9, PCB, Method: STANDARD PLATE) was “active; positive”; the mutagenic call under setting [2] was “inactive; negative”. The mutagenic call is “inactive; negative” under setting [3]; “inactive; negative” (Test System: AMES SALMONELLA TYPHIMURIUM, Strain/Indicator: TA98, Metabolic Activation: NONE, Method: STANDARD PLATE); “inactive; negative” under setting [4]; “inactive; negative” under setting [11]; “inactive; negative” (Test System: AMES SALMONELLA TYPHIMURIUM, Strain/Indicator: TA98, Metabolic Activation: RAT, LIVER, S-9, PCB, Method: STANDARD PLATE); “inactive; negative” (Test System: AMES SALMONELLA TYPHIMURIUM, Strain/Indicator: TA100, Metabolic Activation: HAMSTER, LIVER, S-9, AROCLOR 1254 (5 OR 30%), Method: PREINCUBATION). In addition, the mutagenic call by setting is: under setting [5], “inactive; negative”; under setting [6], “inactive; negative”; (Test System: AMES SALMONELLA TYPHIMURIUM, Strain/Indicator: TA100, Metabolic Activation: NONE, Method: STANDARD PLATE) “inactive; negative”; (Test System: AMES SALMONELLA TYPHIMURIUM, Strain/Indicator: TA100, Metabolic Activation: RAT, LIVER, S-9, AROCLOR 1254 (5%), Method: PREINCUBATION) “inactive; negative”; under setting [7], “inactive; negative”; (Test System: AMES SALMONELLA TYPHIMURIUM, Strain/Indicator: TA100, Metabolic Activation: RAT, LIVER, S-9, AROCLOR 1254, Method: STANDARD PLATE) “active; positive”. For the same compound, the mutagenic call is, setting by setting: (Test System: AMES SALMONELLA TYPHIMURIUM, Strain/Indicator: TA100, Metabolic Activation: RAT, LIVER, S-9, PCB, Method: STANDARD PLATE) “inactive; negative”; under setting [8], “inactive; negative”; under setting [9], “inactive; negative”; under setting [10], “inactive; negative”; (Test System: AMES SALMONELLA TYPHIMURIUM, Strain/Indicator: TA1535, Metabolic Activation: RAT, LIVER, S-9, AROCLOR 1254, Method: STANDARD PLATE) “active; positive”; (Test System: E. COLI, Strain/Indicator: WP2 UVRA, Metabolic Activation: HAMSTER, LIVER, S-9, AROCLOR 1254, Method: STANDARD PLATE) “inactive; negative”. Further, the mutagenic call runs as follows: (Test System: E. COLI, Strain/Indicator: WP2 UVRA, Metabolic Activation: HAMSTER, LIVER, S-9, Method: STANDARD PLATE) “inactive; negative”; (Test System: E. COLI, Strain/Indicator: WP2 UVRA, Metabolic Activation: MOUSE, LIVER, S-9, AROCLOR 1254, Method: STANDARD PLATE) “inactive; negative”; (Test System: E. COLI, Strain/Indicator: WP2 UVRA, Metabolic Activation: MOUSE, LIVER, S-9, Method: STANDARD PLATE) “inactive; negative”; (Test System: E. COLI, Strain/Indicator: WP2 UVRA, Metabolic Activation: NONE, Method: STANDARD PLATE) “inactive; negative”; (Test System: E. COLI, Strain/Indicator: WP2 UVRA, Metabolic Activation: RAT, LIVER, S-9, AROCLOR 1254, Method: STANDARD PLATE) “inactive; negative”; (Test System: E. COLI, Strain/Indicator: WP2 UVRA, Metabolic Activation: RAT, LIVER, S-9, Method: STANDARD PLATE) “inactive; negative”. The mutagenic call (Test System: UDS RAT HEPATOCYTES, Strain/Indicator: BROMODEOXYURIDINE INCORP, Metabolic Activation: NONE, Method: FLOW CYTOMETRIC ANALYSIS) is “inactive; negative”.
Turning to `O=Nc1ccc(O)cc1`, the mutagenic call is “inactive; negative” (Test System: AMES SALMONELLA TYPHIMURIUM, Strain/Indicator: TA97, Metabolic Activation: HAMSTER, LIVER, S-9, AROCLOR 1254 (10 OR 30%), Method: PREINCUBATION); “inactive; negative” under setting [1]; “inactive; negative” (Test System: AMES SALMONELLA TYPHIMURIUM, Strain/Indicator: TA97, Metabolic Activation: RAT, LIVER, S-9, AROCLOR 1254 (10 OR 30%), Method: PREINCUBATION); “inactive; negative” under setting [2]; “active; positive” (Test System: AMES SALMONELLA TYPHIMURIUM, Strain/Indicator: TA98, Metabolic Activation: HAMSTER, LIVER, S-9, AROCLOR 1254 (30%), Method: PREINCUBATION); “active; positive” under setting [3]. Also, the mutagenic call (Test System: AMES SALMONELLA TYPHIMURIUM, Strain/Indicator: TA98, Metabolic Activation: RAT, LIVER, S-9, AROCLOR 1254 (10 OR 30%), Method: PREINCUBATION) is “inactive; negative”; the mutagenic call under setting [5] is “inactive; negative”; the mutagenic call (Test System: AMES SALMONELLA TYPHIMURIUM, Strain/Indicator: TA100, Metabolic Activation: HAMSTER, LIVER, S-9, AROCLOR 1254 (30%), Method: PREINCUBATION) was “active; positive”; the mutagenic call under setting [6] is “inactive; negative”; the mutagenic call (Test System: AMES SALMONELLA TYPHIMURIUM, Strain/Indicator: TA100, Metabolic Activation: RAT, LIVER, S-9, AROCLOR 1254 (10 OR 30%), Method: PREINCUBATION) is “inactive; negative”; the mutagenic call under setting [8] is “inactive; negative”. The mutagenic call is, setting by setting: under setting [9], “inactive; negative”; under setting [10], “inactive; negative”.

For the origin of these results see PubChem BioAssay AID1259407 (Chemical Carcinogenesis Research Information System (CCRIS), 2018).
